According to patent US20230085307A1, “PYRIDAZINONE COMPOUND AND HERBICIDE” (NISSAN CHEMICAL CORPORATION, priority 2019, published 2023):

Columns and labels:
rice flat sedge = experiment: Test Example 3: herbicidal effect by foliage application, Wagner pot (Table 18, symbol E); type: in vivo, rice flat sedge (Cyperus iria); conditions: amount of applied herbicide 320 g/ha
Procedure, shortened: (§1)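 Plants were sown in alluvial soil held under 0.1–0.5 cm standing water and grown 14 days in a greenhouse at 25–30 °C. An emulsifiable formulation, water-diluted to the set dose, was then sprayed onto the foliage, and effects were scored three weeks later using previously defined criteria.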

oval-leafed pondweed = experiment: Test Example 1: herbicidal activity, application before weed generation under submerged conditions (Table 16, symbol C); type: in vivo, oval-leafed pondweed (Monochoria vaginalis)
Procedure, shortened: (§2)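 Emulsion formulation, water-diluted to set dose, was put onto the flooded surface (4 cm depth, alluvial soil) the same day weeds were sown and 2.5-leaf rice transplanted. After 3 weeks at 25-30 °C under glass, each species was rated 0 (≤5% kill) to 5 (≥90% kill).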

barnyard grass [1] = experiment: Test Example 3: herbicidal effect by foliage application, Wagner pot (Table 18, symbol H); type: in vivo, barnyard grass (Echinochloa crus-galli); conditions: amount of applied herbicide 320 g/ha
Procedure, shortened: as §1

green foxtail [2] = experiment: Test Example 4: herbicidal effect by soil treatment (Table 19, symbol G); type: in vivo, green foxtail (Setaria viridis); conditions: amount of applied herbicide 320 g/ha
Procedure, shortened: (§3)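 Three weeks of greenhouse growth at 25° C. to 30° C. followed a uniform surface spray of water-diluted emulsion at a predetermined herbicide amount. Seeds had been sown beforehand under about 1.5 cm of sterilized diluvial soil. Grading followed criteria set out in an earlier test.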

blackgrass [3] = experiment: Test Example 5: herbicidal effect by foliage application, plastic box (Table 20, symbol J); type: in vivo, blackgrass (Alopecurus myosuroides); conditions: foliage application, 320 g/ha
Procedure, shortened: (§4)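 Plants sown in sterilized diluvial soil and grown 14 days in a greenhouse at 25° C to 30° C, then sprayed on the foliage with the compound's emulsion diluted in water to a predetermined herbicide amount. Injury to weeds and crops scored three weeks after application on a visual rating scale.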

chickweed [4] = experiment: Test Example 5: herbicidal effect by foliage application, plastic box (Table 20, symbol P); type: in vivo, common chickweed (Stellaria media); conditions: foliage application, 320 g/ha, evaluated three weeks after application
Procedure, shortened: as §4

barnyard grass [5] = experiment: Test Example 5: herbicidal effect by foliage application, plastic box (Table 20, symbol H); type: in vivo, barnyard grass (Echinochloa crus-galli); conditions: foliage application, 320 g/ha
Procedure, shortened: as §4

windgrass [6] = experiment: Test Example 5: herbicidal effect by foliage application, plastic box (Table 20, symbol L); type: in vivo, windgrass (Apera spica-venti); conditions: foliage application, 320 g/ha
Procedure, shortened: as §4

persian speedwell [7] = experiment: Test Example 5: herbicidal effect by foliage application, plastic box (Table 20, symbol R); type: in vivo, Persian speedwell (Veronica persica); conditions: foliage application, 320 g/ha
Procedure, shortened: as §4

wild oat [8] = experiment: Test Example 4: herbicidal effect by soil treatment (Table 19, symbol I); type: in vivo, wild oat (Avena fatua); conditions: amount of applied herbicide 320 g/ha
Procedure, shortened: as §3

southern crabgrass [9] = experiment: Test Example 4: herbicidal effect by soil treatment (Table 19, symbol F); type: in vivo, southern crabgrass (Digitaria ciliaris); conditions: amount of applied herbicide 320 g/ha
Procedure, shortened: as §3

persian speedwell [10] = experiment: Test Example 4: herbicidal effect by soil treatment (Table 19, symbol R); type: in vivo, Persian speedwell (Veronica persica); conditions: amount of applied herbicide 320 g/ha
Procedure, shortened: as §3

Japanese bulrush = experiment: Test Example 1: herbicidal activity, application before weed generation under submerged conditions (Table 16, symbol B); type: in vivo, Japanese bulrush (Schoenoplectus juncoides)
Procedure, shortened: as §2

redroot pigweed = experiment: Test Example 4: herbicidal effect by soil treatment (Table 19, symbol N); type: in vivo, redroot pigweed (Amaranthus retroflexus); conditions: amount of applied herbicide 320 g/ha
Procedure, shortened: as §3

late watergrass = experiment: Test Example 1: herbicidal activity, application before weed generation under submerged conditions (Table 16, symbol A); type: in vivo, late watergrass (Echinochloa oryzicola)
Procedure, shortened: as §2

lambsquarters [11] = experiment: Test Example 5: herbicidal effect by foliage application, plastic box (Table 20, symbol O); type: in vivo, lambsquarters (Chenopodium album); conditions: foliage application, 320 g/ha
Procedure, shortened: as §4

Italian ryegrass [12] = experiment: Test Example 5: herbicidal effect by foliage application, plastic box (Table 20, symbol K); type: in vivo, Italian ryegrass (Lolium multiflorum); conditions: foliage application, 320 g/ha
Procedure, shortened: as §4

chickweed [13] = experiment: Test Example 4: herbicidal effect by soil treatment (Table 19, symbol P); type: in vivo, common chickweed (Stellaria media); conditions: amount of applied herbicide 320 g/ha
Procedure, shortened: as §3

barnyard grass [14] = experiment: Test Example 4: herbicidal effect by soil treatment (Table 19, symbol H); type: in vivo, barnyard grass (Echinochloa crus-galli); conditions: amount of applied herbicide 320 g/ha
Procedure, shortened: as §3

wild oat [15] = experiment: Test Example 5: herbicidal effect by foliage application, plastic box (Table 20, symbol I); type: in vivo, wild oat (Avena fatua); conditions: foliage application, 320 g/ha
Procedure, shortened: as §4

Chinese sprangletop = experiment: Test Example 3: herbicidal effect by foliage application, Wagner pot (Table 18, symbol D); type: in vivo, chinese sprangletop (Leptochloa chinensis); conditions: amount of applied herbicide 320 g/ha
Procedure, shortened: as §1

southern crabgrass [16] = experiment: Test Example 5: herbicidal effect by foliage application, plastic box (Table 20, symbol F); type: in vivo, southern crabgrass (Digitaria ciliaris); conditions: foliage application, 320 g/ha
Procedure, shortened: as §4

blackgrass [17] = experiment: Test Example 4: herbicidal effect by soil treatment (Table 19, symbol J); type: in vivo, blackgrass (Alopecurus myosuroides); conditions: amount of applied herbicide 320 g/ha
Procedure, shortened: as §3

lambsquarters [18] = experiment: Test Example 4: herbicidal effect by soil treatment (Table 19, symbol O); type: in vivo, lambsquarters (Chenopodium album); conditions: amount of applied herbicide 320 g/ha
Procedure, shortened: as §3

windgrass [19] = experiment: Test Example 4: herbicidal effect by soil treatment (Table 19, symbol L); type: in vivo, windgrass (Apera spica-venti); conditions: amount of applied herbicide 320 g/ha
Procedure, shortened: as §3

velvetleaf [20] = experiment: Test Example 5: herbicidal effect by foliage application, plastic box (Table 20, symbol M); type: in vivo, velvetleaf (Abutilon theophrasti); conditions: foliage application, 320 g/ha
Procedure, shortened: as §4

Italian ryegrass [21] = experiment: Test Example 4: herbicidal effect by soil treatment (Table 19, symbol K); type: in vivo, Italian ryegrass (Lolium multiflorum); conditions: amount of applied herbicide 320 g/ha
Procedure, shortened: as §3

velvetleaf [22] = experiment: Test Example 4: herbicidal effect by soil treatment (Table 19, symbol M); type: in vivo, velvetleaf (Abutilon theophrasti); conditions: amount of applied herbicide 320 g/ha
Procedure, shortened: as §3

green foxtail [23] = experiment: Test Example 5: herbicidal effect by foliage application, plastic box (Table 20, symbol G); type: in vivo, green foxtail (Setaria viridis); conditions: foliage application, 320 g/ha
Procedure, shortened: as §4

[24] = evaluated three weeks after application
[25] = amount of applied herbicide 320 g/ha

## CCCOc1ccc2sc(-c3ccc(F)cc3OC)c(-c3c(O)c(C)nn(C)c3=O)c2c1 [2-173]
Rice flat sedge
  herbicidal effect on E: rice flat sedge: 2 (Herbicidal rate of 20% or more and less than 40%)
oval-leafed pondweed; 320 g/ha applied herbicide
  Herbicidal effect on C: oval-leafed pondweed (grade 0-5): 0 (Herbicidal rate of 5% or less (almost no effect))
Barnyard grass [1]
  herbicidal effect on H: barnyard grass: 3 (Herbicidal rate of 40% or more and less than 70%)
Green foxtail [2]
  G: green foxtail, herbicidal effect rating: 0 (Herbicidal rate of 5% or less (almost no effect))
Blackgrass [3]; [24]
  herbicidal effect on J: blackgrass (criteria 0-5): 4 (Herbicidal rate of 70% or more and less than 90%)
Chickweed [4]
  herbicidal effect on P: chickweed (criteria 0-5): 5 (Herbicidal rate of 90% or more (almost completely withered))
Barnyard grass [5]; [24]
  herbicidal effect on H: barnyard grass (criteria 0-5): 0 (Herbicidal rate of 5% or less (almost no effect))
Windgrass [6]; [24]
  herbicidal effect on L: windgrass (criteria 0-5): 4 (Herbicidal rate of 70% or more and less than 90%)
Persian speedwell [7]; [24]
  herbicidal effect on R: persian speedwell (criteria 0-5): 5 (Herbicidal rate of 90% or more (almost completely withered))
Wild oat [8]
  I: wild oat, herbicidal effect rating: 0 (Herbicidal rate of 5% or less (almost no effect))
Southern crabgrass [9]
  F: southern crabgrass, herbicidal effect rating: 0 (Herbicidal rate of 5% or less (almost no effect))
Persian speedwell [10]
  R: persian speedwell, herbicidal effect rating: 0 (Herbicidal rate of 5% or less (almost no effect))
Japanese bulrush; 320 g/ha applied herbicide
  Herbicidal effect on B: Japanese bulrush (grade 0-5): 0 (Herbicidal rate of 5% or less (almost no effect))
Redroot pigweed
  N: redroot pigweed, herbicidal effect rating: 0 (Herbicidal rate of 5% or less (almost no effect))
Late watergrass; 320 g/ha applied herbicide
  Herbicidal effect on A: late watergrass (grade 0-5): 2 (Herbicidal rate of 20% or more and less than 40%)
Lambsquarters [11]; [24]
  herbicidal effect on O: lambsquarters (criteria 0-5): 1 (Herbicidal rate of 5% or more and less than 20%)
Italian ryegrass [12]; [24]
  herbicidal effect on K: Italian ryegrass (criteria 0-5): 0 (Herbicidal rate of 5% or less (almost no effect))
Chickweed [13]
  P: chickweed, herbicidal effect rating: 3 (Herbicidal rate of 40% or more and less than 70%)
Barnyard grass [14]
  H: barnyard grass, herbicidal effect rating: 0 (Herbicidal rate of 5% or less (almost no effect))
Wild oat [15]; [24]
  herbicidal effect on I: wild oat (criteria 0-5): 0 (Herbicidal rate of 5% or less (almost no effect))
Chinese sprangletop
  herbicidal effect on D: Chinese sprangletop: 2 (Herbicidal rate of 20% or more and less than 40%)
Southern crabgrass [16]; [24]
  herbicidal effect on F: southern crabgrass (criteria 0-5): 0 (Herbicidal rate of 5% or less (almost no effect))
Blackgrass [17]
  J: blackgrass, herbicidal effect rating: 0 (Herbicidal rate of 5% or less (almost no effect))
Lambsquarters [18]
  O: lambsquarters, herbicidal effect rating: 0 (Herbicidal rate of 5% or less (almost no effect))
Windgrass [19]
  L: windgrass, herbicidal effect rating: 0 (Herbicidal rate of 5% or less (almost no effect))
Velvetleaf [20]; [24]
  herbicidal effect on M: velvetleaf (criteria 0-5): 0 (Herbicidal rate of 5% or less (almost no effect))
Italian ryegrass [21]
  K: Italian ryegrass, herbicidal effect rating: 0 (Herbicidal rate of 5% or less (almost no effect))
Velvetleaf [22]
  M: velvetleaf, herbicidal effect rating: 0 (Herbicidal rate of 5% or less (almost no effect))
Green foxtail [23]; [24]
  herbicidal effect on G: green foxtail (criteria 0-5): 0 (Herbicidal rate of 5% or less (almost no effect))

## COc1ccccc1-c1oc2ccc(F)cc2c1-c1c(O)c(C)nn(C)c1=O [9-019]
Rice flat sedge
  Herbicidal effect on E (rice flat sedge), foliage application: 4 (Herbicidal rate of 70% or more and less than 90%)
oval-leafed pondweed; [25]
  Herbicidal effect, C: oval-leafed pondweed: 0 (Herbicidal rate of 5% or less (almost no effect))
Barnyard grass [1]
  Herbicidal effect on H (barnyard grass), foliage application: 4 (Herbicidal rate of 70% or more and less than 90%)
Green foxtail [2]
  G: green foxtail, herbicidal effect grade: 0 (Herbicidal rate of 5% or less (almost no effect))
Blackgrass [3]; three weeks after application
  herbicidal effect on blackgrass (J): 0 (Herbicidal rate of 5% or less (almost no effect))
Barnyard grass [5]; three weeks after application
  herbicidal effect on barnyard grass (H): 0 (Herbicidal rate of 5% or less (almost no effect))
Windgrass [6]; three weeks after application
  herbicidal effect on windgrass (L): 0 (Herbicidal rate of 5% or less (almost no effect))
Persian speedwell [7]; three weeks after application
  herbicidal effect on persian speedwell (R): 4 (Herbicidal rate of 70% or more and less than 90%)
Wild oat [8]
  I: wild oat, herbicidal effect grade: 0 (Herbicidal rate of 5% or less (almost no effect))
Southern crabgrass [9]
  F: southern crabgrass, herbicidal effect grade: 0 (Herbicidal rate of 5% or less (almost no effect))
Persian speedwell [10]
  R: persian speedwell, herbicidal effect grade: 0 (Herbicidal rate of 5% or less (almost no effect))
Japanese bulrush; [25]
  Herbicidal effect, B: Japanese bulrush: 0 (Herbicidal rate of 5% or less (almost no effect))
Redroot pigweed
  N: redroot pigweed, herbicidal effect grade: 2 (Herbicidal rate of 20% or more and less than 40%)
Late watergrass; [25]
  Herbicidal effect, A: late watergrass: 3 (Herbicidal rate of 40% or more and less than 70%)
Lambsquarters [11]; three weeks after application
  herbicidal effect on lambsquarters (O): 0 (Herbicidal rate of 5% or less (almost no effect))
Italian ryegrass [12]; three weeks after application
  herbicidal effect on Italian ryegrass (K): 0 (Herbicidal rate of 5% or less (almost no effect))
Chickweed [13]
  P: chickweed, herbicidal effect grade: 0 (Herbicidal rate of 5% or less (almost no effect))
Barnyard grass [14]
  H: barnyard grass, herbicidal effect grade: 0 (Herbicidal rate of 5% or less (almost no effect))
Wild oat [15]; three weeks after application
  herbicidal effect on wild oat (I): 0 (Herbicidal rate of 5% or less (almost no effect))
Chinese sprangletop
  Herbicidal effect on D (Chinese sprangletop), foliage application: 4 (Herbicidal rate of 70% or more and less than 90%)
Southern crabgrass [16]; three weeks after application
  herbicidal effect on southern crabgrass (F): 0 (Herbicidal rate of 5% or less (almost no effect))
Blackgrass [17]
  J: blackgrass, herbicidal effect grade: 0 (Herbicidal rate of 5% or less (almost no effect))
Lambsquarters [18]
  O: lambsquarters, herbicidal effect grade: 1 (Herbicidal rate of 5% or more and less than 20%)
Windgrass [19]
  L: windgrass, herbicidal effect grade: 0 (Herbicidal rate of 5% or less (almost no effect))
Velvetleaf [20]; three weeks after application
  herbicidal effect on velvetleaf (M): 0 (Herbicidal rate of 5% or less (almost no effect))
Italian ryegrass [21]
  K: Italian ryegrass, herbicidal effect grade: 1 (Herbicidal rate of 5% or more and less than 20%)
Velvetleaf [22]
  M: velvetleaf, herbicidal effect grade: 0 (Herbicidal rate of 5% or less (almost no effect))
Green foxtail [23]; three weeks after application
  herbicidal effect on green foxtail (G): 0 (Herbicidal rate of 5% or less (almost no effect))
